According to patent US20260327243A1, “SPIRO-HETEROCYCLIC INHIBITORS OF KRAS G12C MUTANT PROTEINS AND USES THEREOF” (AMGEN INC., priority 2023, published 2026):
Read-outs that look alike come from different tables or passages of the source.

What was measured:
[1] = test system: MIA PaCa-2 cells; experiment: Cell Viability Assay, MIA PaCa-2; format: cell-based; details: Homo sapiens, MIA PaCa-2, 72 h, human pancreatic carcinoma, CellTiter-Glo
[2] = biological target: KRAS^G12C (Homo sapiens, UniProt P01116, C118A/G12C); experiment: Coupled Nucleotide Exchange Assay; format: biochemical; details: GDP-bound KRAS (aa 1-169) G12C/C118A; 2 h compound pre-incubation; SOS-mediated exchange, 30 min; cRAF binding (AlphaLISA)
KRAS^G12C, sequence (P01116 1-169 isoform P01116-2 G12C/C118A): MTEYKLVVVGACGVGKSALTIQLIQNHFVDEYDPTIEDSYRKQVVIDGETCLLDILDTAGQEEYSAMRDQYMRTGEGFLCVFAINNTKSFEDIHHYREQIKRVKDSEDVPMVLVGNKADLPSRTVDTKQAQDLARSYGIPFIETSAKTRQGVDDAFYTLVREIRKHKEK
Outline: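 GDP-bound His-tagged KRAS aa 1-169 (G12C/C118A) pre-incubated 2 h with compound in 25 mM HEPES pH 7.4, 10 mM MgCl2, 0.01% Triton X-100 (±0.1% BSA), then SOS (aa 564-1049) plus GTP added for 30 min. GST-cRAF RBD binding read by AlphaLISA; DMSO-normalized, 4-parameter fit gives IC50.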

[3] = test system: A549 cells; experiment: Cell Viability Assay, A549; format: cell-based; details: A549; human lung carcinoma; 72 h; CellTiter-Glo
[4] = test system: advanced or metastatic cancer with the KRAS G12C mutation; details: cited from earlier work; for disease control rate: Hong et al. 2020
[5] = test system: KRAS p.G12C tumors; details: mice bearing KRAS p.G12C tumors; Hong et al. 2020; cited from earlier work
[6] = test system: extracellular signal-regulated kinase (ERK); details: preclinical studies; Hong et al. 2020; cited from earlier work

SMILES | IC50 [1] [nM] | IC50 [2] [nM] | IC50 [3] [µM] | response by cancer type ([4]; NSCLC, colorectal, pancreatic, appendiceal, endometrial, esophageal, unknown primary, ampullary, gastric, small bowel, sinonasal, bile duct cancer, melanoma) | disease control rate ([4]; colorectal cancer, 42 subjects) [%] | disease control rate ([4]; non-small cell lung cancer, 59 subjects) [%] | disease control rate ([4]; other tumor types, 28 subjects) [%] | tumor regression [5] | inhibition of phosphorylation of ERK [6]
C=CC(=O)N1CCN([C@@H]2CN(c3cc(N4CCC5(CC4)OC4(COC4)c4nccc(C)c45)nc(C(F)F)n3)[C@@H]2C)CC1 [Compound 3-103, 1-(4-((2R,3R)-1-(2-(difluoromethyl)-6-(4′-methyl-1″H-dispiro[oxetane-3,7′-furo[3,4-b]pyridine-5′,4″- piperidin]-1″-yl)-4-pyrimidinyl)-2-methyl-3-azetidinyl)-1-piperazinyl)-2-propen-1-one] | 171 | 36 | > 5 | – | – | – | – | – | –
C=CC(=O)N1CCN([C@@H]2CN(c3cc(N4CC[C@]5(C[C@H]4C)OC4(COC4)c4nccc(C)c45)nc(C(F)(F)F)n3)[C@@H]2C)CC1 [Compound 3-104, 1-(4-((2R,3R)-1-(6-((2″R,5′R)-2″,4′-dimethyl-1″H-dispiro[oxetane-3,7′-furo[3,4-b]pyridine-5′,4″-piperidin]-1″- yl)-2-(trifluoromethyl)-4-pyrimidinyl)-2-methyl-3-azetidinyl)-1-piperazinyl)-2-propen-1-one] | 81 | 21 | > 5 | – | – | – | – | – | –
C=CC(=O)N1CCN(c2nc(=O)n(-c3c(C)ccnc3C(C)C)c3nc(-c4c(O)cccc4F)c(F)cc23)[C@@H](C)C1 [Sotorasib, sotorasib] | – | – | – | either stable disease (SD) or partial response (PR) | 73.8 | 88.1 | 75.0 | durable complete tumor regression | inhibited nearly all detectable phosphorylation of extracellular signal-regulated kinase (ERK)
